Data as given in patent US7423181B2, “Aminoalkoxy-functional chalcones” (Lica Pharmaceuticals A/S, priority 2002, dated 2008).
Converted amounts (≈) assume the structure as drawn.

What was measured:
[1] = system: Staphylococcus aureus ATCC33591(resistant to methicillin); experiment: MIC determination in broth microdilution assay; details: B: Staphylococcus aureus ATCC33591(resistant to methicillin)
[2] = system: panel of 10 different non-fastidious bacteria; experiment: Screening against panel of non-fastidious bacteria; details: Gram-positive pathogens
Eschericia coli ESS = experiment: MIC determination in broth microdilution assay; details: H: Eschericia coli ESS
[3] = system: Enterococcus faecalis ATCC29212; experiment: MIC determination in broth microdilution assay; details: D: Enterococcus faecalis ATCC29212
[4] = system: Enterococcus faecium #17501 (vancomycin-resistant clinical isolate); experiment: MIC determination in broth microdilution assay; details: E: Enterococcus faecium #17501 (vancomycin-resistant)
[5] = system: Staphylococcus aureus ATCC29213; experiment: MIC determination in broth microdilution assay; details: A: Staphylococcus aureus ATCC29213
S.aureus ATCC33591 = details: time-kill curve FIG. 2, S.aureus ATCC33591
[6] = system: Streptococcus pneumoniae #998 (clinical isolate); experiment: MIC determination in broth microdilution assay; details: F: Streptococcus pneumoniae #998
Plasmodium berghei K173 = details: NMRI female mice; for effect on development of the infection: multiple oral administrations, FIG. 7
S.aureus ATCC29213 = details: time-kill curve FIG. 3, S.aureus ATCC29213
[7] = system: Plasmodium falciparum 3D7; experiment: Plasmodium falciparum assay; type: cell-based; details: Plasmodium falciparum 3D7 (Table 2); read-out: IC50
[8] = system: panel of six strains Helicobacter pylori; experiment: MIC determination against Helicobacter pylori (agar dilution); details: read-out: MICs against Helicobacter pylori
[9] = system: dihydroorotate dehydrogenase (DHODH); experiment: DHODH assay; type: biochemical; details: at 10 μM
Method: 100 μl chalcone or 0.1 M Tris-HCl pH 8.0 is added to a well in a 96-wells microtiter plate. Then 50 μl enzyme dilution is added. The microtiter plate is placed in the Powerwavex340 and the enzymatic reactions starts when adding 100 μl assay mixture. The reaction are measured every 20 sec. for 10 min. The samples with chalcones are compared with the samples with 0.1 M Tris-HCl pH 8.0 and the percent inhibition is calculated.
Enzyme dilution: The solution of recombinant purified enzyme is dissolved in 0.1 M Tris-HCl pH 8 to give an initial velocity of 0.04-0.05 ΔA/min.
2,6-dichlorophenolindophenol (DCIP)-stock solution: 40 mg DCIP and 10 ml 99% Ethanol are mixed for 10 min at RT. Then 100 μl 1.0 M Tris-HCl pH 8 and miliQ H2O are added to a final volume of 100 ml. The A600 of the DCIP-stock solution are measured in a microtiter plate on the Powerwavex340 (Bio-Tek instruments,Inc.)
[…]: 25 mM dihydroorotate stock-solution is prepared by first dissolving in the same amount of mol NaOH and then miliQ H2O is added to the final volume.
Assay mix (10 ml solution): 600 μl of DHODH-stock solution and X ml (depending on the A600 value of stock-solution) DCIP to a final A600=2.5 are mixed. Then 0.1 M Tris-HCl pH 8.0 are added to a final volume of 10 ml.
Preparation of compound soluton: A 10 mM stock-solution of compound (e.g. a chalcone derivative) is made in dimethylsulfoxid (DMSO). The compound is then diluted in 0.1 M Tris-HCl pH 8 to the test concentrations. The final DMSO concentration in the sample is 10%

[10] = system: Bacteroides fragilis, Clostridium perfringens, Clostridium difficele; type: cell-based; details: single concentration of compound (100 μM)
Pharmacokinetic studies = type: in vivo, mice; details: in mice
Method: Samples of serum were taken at defined timepoints.
The supernatant was used for the analysis.
The flow rate was […], injection volume 10 μl.

With `COc1ccc(C(=O)/C=C/c2cc(-c3cc(C)cc(C)c3)ccc2OCCN(C)C)cc1` [Compound C023, (E)-3-[4-(2′-Dimethylamino-ethoxy)-3′,5′-dimethyl-biphenyl-3-yl]-1-(4-methoxy-phenyl)-propenone] the MIC [1] was 4.7 µM (≈ 2.02 µg/mL), the “potency against Gram-positive pathogens in comparison with Licochalcone A” value [2] was “increased potency” and the MIC (Eschericia coli ESS) was 9.4 µM (≈ 4.04 µg/mL). It also gave an MIC [3] of 4.7 µM (≈ 2.02 µg/mL), an MIC [4] of 4.7 µM (≈ 2.02 µg/mL) and an MIC [5] of 4.7 µM (≈ 2.02 µg/mL). For the same compound, the MIC (S.aureus ATCC33591) was 9.4 µM (≈ 4.04 µg/mL), the “bactericidal action (CFU counts per ml above the MIC)” value (S.aureus ATCC33591) was “bactericidal” and the MIC [6] was 18.8 µM (≈ 8.08 µg/mL).

With `COc1ccc(C(=O)/C=C/c2cc(-c3ccccc3C)ccc2OCCN(C)C)c(CN(C)C)c1` [Compound C114, (E)-3-[4-(2-Dimethylamino-ethoxy)-2′-methyl-biphenyl-3-yl]-1-(2-imethylaminomethyl-4-methoxy-phenyl)-propenone] the “effect on development of the infection” value (Plasmodium berghei K173) was “inhibit the development of the infection”.

With `CCN(CC)Cc1ccccc1C(=O)/C=C/c1cc(-c2cc(C)cc(C)c2)ccc1OCCN(C)C` [Compound C030, (E)-1-(2-Diethylaminomethyl-phenyl)-3-[4-(2-dimethylamino-ethoxy)-3′,5′-dimethyl-biphenyl-3-yl]-propenone] the “potency against Gram-positive pathogens in comparison with Licochalcone A” value [2] was “increased potency”, the MIC (S.aureus ATCC29213) was 18.8 µM (≈ 9.11 µg/mL) and the “bactericidal action (CFU counts per ml above the MIC)” value (S.aureus ATCC29213) was “bactericidal”.

With `Cc1ccccc1-c1ccc(OCCN(C)C)c(/C=C/C(=O)c2ccccc2CN(C)C)c1` [Compound C035, (E)-3-[4-(2-Dimethylamino-ethoxy)-2′-methyl-biphenyl-3-yl]-1-(2-dimethylaminomethyl-phenyl)-propenone] the IC50 [7] was 100 nM and the effect on parasitaemia (Plasmodium berghei K173; multiple intra venous administrations, FIG. 6) was “significant decrease in the parasitaemia”.

For `CC(=O)Nc1cccc(C(=O)/C=C/c2cc(-c3cc(C)cc(C)c3)ccc2OCCN(C)C)c1` [Compound C088, N-(3-{3-[4-(2-Dimethylamino-ethoxy)-3′,5′-dimethyl-biphenyl-3-yl]-(E)-acryloyl}-phenyl)-acetamide], the MIC [8] was 12 to 25 µM (≈ 5.48 to 11.4 µg/mL).

For `COc1ccc(C(=O)/C=C/c2cc(-c3cc(C)cc(C)c3)ccc2OCCN(C)C)c(Cl)c1` [Compound C026, (E)-1-(2-Chloro-4-methoxy-phenyl)-3-[4-(2-dimethylamino-ethoxy)-3′,5′-dimethyl-biphenyl-3-yl]-propenone], the “Inhibition of DHODH” value [9] was 19% and the “activity against anaerobic bacteria” value [10] was “activity against all microorganisms within the test panel”.

In the case of `CN(C)CCOc1ccc(-c2ccccc2Cl)cc1/C=C/C(=O)c1ccccc1CN(C)C` [Compound C128, (E)-3-[2′-Chloro-4-(2-dimethylamino-ethoxy)-biphenyl-3-yl]-1-(2-dimethylaminomethyl-phenyl)-propenone], the “effect on development of the infection” value (Plasmodium berghei K173) is reported as “inhibit the development of the infection”.

For `COc1ccc(C(=O)/C=C/c2cc(C(C)(C)C)cc(C(C)(C)C)c2OCCN(C)C)c(F)c1` [Compound C028, (E)-3-[3,5-Di-tert-butyl-2-(2-dimethylamino-ethoxy)-phenyl]-1-(2-fluoro-4-methoxy-phenyl)-propenone], the “Inhibition of DHODH” value [9] was 23% and the “activity against anaerobic bacteria” value [10] was “activity against all microorganisms within the test panel”.

With `COc1ccc(C(=O)/C=C/c2cccc(OCCN(C)C)c2)c(OC)c1OC` [Compound C043, (E)-3-[3-(2-Dimethylamino-ethoxy)-phenyl]-1-(2,3,4-trimethoxy-phenyl)-propenone] the bioavailability (Pharmacokinetic studies) was 42%.

With `Cc1ccccc1-c1ccc(OCCN(C)C)c(/C=C/C(=O)c2ccccc2CN2CCCC2)c1` [Compound C119, (E)-3-[4-(2-Dimethylamino-ethoxy)-2′-methyl-biphenyl-3-yl]-1-(2-pyrrolidin-1-ylmethyl-phenyl)-propenone] the “effect on development of the infection” value (Plasmodium berghei K173) was “inhibit the development of the infection”.
